Experimental data from ChEMBL document CHEMBL1201862, “PubChem BioAssay data set” (2004).
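Protocol summary: plate cells (96-well), add compound at 5 concentrations, incubate 48 h, interpolate endpoints linearly. GI50: concentration for 50% inhibition of growth.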 Active and inactive are the calls of the source. Rule as the data show it: active = GI50 up to about 1.1 µM and inactive = higher. Bridge positions count the residues as written; N and C are the ends. Square brackets hold non-standard residues; d marks the D form. Peptide text beside a SMILES is read from it. * marks the point of attachment. Cya = N[CH](CS(=O)(=O)O)C(=O)O; X49 = CC(C)CCCCCCCC(O)CC(=O)*; GABA = NCCCC(=O)O

Key:
Assay in all cases: NCI anticancer screen, dose series, 48 h
A549 = test system: A549
ACHN = test system: ACHN
DU-145 = test system: DU-145
HCC 2998 = test system: HCC 2998
HL-60 = test system: HL-60
HT-29 = test system: HT-29
IGROV-1 = test system: IGROV-1
KM12 = test system: KM12
MDA-N = test system: MDA-N
MOLT-4 = test system: MOLT-4
NCI-H23 = test system: NCI-H23
NCI/ADR-RES = test system: NCI/ADR-RES
OVCAR-8 = test system: OVCAR-8
PC-3 = test system: PC-3
SF-539 = test system: SF-539
SK-MEL-2 = test system: SK-MEL-2
SN12C = test system: SN12C
SR = test system: SR
T47D = test system: T47D
U-251 = test system: U-251

SMILES	GI50 (A549)	GI50 (ACHN)	GI50 (DU-145)	GI50 (HCC 2998)	GI50 (HL-60)	GI50 (HT-29)	GI50 (IGROV-1)	GI50 (KM12)	GI50 (MDA-N)	GI50 (MOLT-4)	GI50 (NCI-H23)	GI50 (NCI/ADR-RES)	GI50 (OVCAR-8)	GI50 (PC-3)	GI50 (SF-539)	GI50 (SK-MEL-2)	GI50 (SN12C)	GI50 (SR)	GI50 (T47D)	GI50 (U-251)
CSc1ccc(NC(=O)C2CCCCC2C(=O)O)cc1 (stereo not given)	> 100 µM (inactive)	> 100 µM (inactive)	> 100 µM (inactive)	> 100 µM (inactive)	> 100 µM (inactive)	> 100 µM (inactive)	> 100 µM (inactive)	> 100 µM (inactive)	> 100 µM (inactive)	38.6 µM (inactive)	> 100 µM (inactive)	> 100 µM (inactive)	> 100 µM (inactive)	> 100 µM (inactive)	> 100 µM (inactive)	> 100 µM (inactive)	> 100 µM (inactive)	> 100 µM (inactive)	> 100 µM (inactive)	> 100 µM (inactive)
COc1cc2c(cc1O)[C@@H]1Cc3c(cc(OC)c(OC)c3Oc3cc4c(cc3OC)CCN(C)[C@@H]4Cc3ccc(O)cc3)[C@H](C2)N1C	> 100 µM (inactive)	> 83.2 µM (inactive)	> 100 µM (inactive)	31 µM (inactive)	17.7 µM (inactive)	35.4 µM (inactive)	82.2 µM (inactive)	45.1 µM (inactive)	19 µM (inactive)	31 µM (inactive)	> 100 µM (inactive)	> 100 µM (inactive)	53 µM (inactive)	36.2 µM (inactive)	23.5 µM (inactive)	22.6 µM (inactive)	> 71.1 µM (inactive)	13 µM (inactive)	36.1 µM (inactive)	46.5 µM (inactive)
COc1ccc(/C=N/c2nc3cc4sc(/N=C/c5ccc(OC)cc5)nc4cc3s2)cc1	8 µM (inactive)	43.7 µM (inactive)	> 23.7 µM (inactive)	24.7 µM (inactive)	18.4 µM (inactive)	23.1 µM (inactive)	57.4 µM (inactive)	34.1 µM (inactive)	34.2 µM (inactive)	8.15 µM (inactive)	15.9 µM (inactive)	23.4 µM (inactive)	> 60.5 µM (inactive)	> 81.7 µM (inactive)	> 100 µM (inactive)	> 100 µM (inactive)	32.7 µM (inactive)	22.9 µM (inactive)	> 40.9 µM (inactive)	54.3 µM (inactive)
O=C1CCCC2=C1CC1=C(CCCC1=O)N2c1ccc(-c2ccccc2)cc1	> 100 µM (inactive)	> 100 µM (inactive)	> 100 µM (inactive)	> 100 µM (inactive)	> 29.6 µM (inactive)	> 100 µM (inactive)	> 100 µM (inactive)	> 100 µM (inactive)	> 100 µM (inactive)	> 100 µM (inactive)	> 100 µM (inactive)	> 100 µM (inactive)	> 100 µM (inactive)	> 100 µM (inactive)	> 72.6 µM (inactive)	> 100 µM (inactive)	> 100 µM (inactive)	> 100 µM (inactive)	> 100 µM (inactive)	> 75 µM (inactive)
CCOC(=O)c1csc(-c2cn(C)c3c2C(=O)C(OC)=CC3=O)n1	17.8 µM (inactive)	34.8 µM (inactive)	6.05 µM (inactive)	23.8 µM (inactive)	13 µM (inactive)	48.2 µM (inactive)	> 46.1 µM (inactive)	20 µM (inactive)	15.6 µM (inactive)	> 100 µM (inactive)	11.3 µM (inactive)	22.5 µM (inactive)	45.2 µM (inactive)	21.4 µM (inactive)	27.6 µM (inactive)	21.7 µM (inactive)	> 75.2 µM (inactive)	> 53.5 µM (inactive)	> 95.1 µM (inactive)	15.4 µM (inactive)
COc1ccc(-n2c(N)c(C#N)c(C#N)c2-c2ccco2)cc1	> 100 µM (inactive)	> 100 µM (inactive)	> 100 µM (inactive)	> 100 µM (inactive)	> 100 µM (inactive)	> 100 µM (inactive)	75.2 µM (inactive)	> 100 µM (inactive)	45.5 µM (inactive)	46.7 µM (inactive)	> 100 µM (inactive)	> 100 µM (inactive)	> 100 µM (inactive)	46.3 µM (inactive)	> 100 µM (inactive)	> 100 µM (inactive)	> 100 µM (inactive)	> 100 µM (inactive)	47.9 µM (inactive)	> 100 µM (inactive)
CC(C)CCCCCCCC(O)CC(=O)NC(CS(=O)(=O)O)C(=O)NC(CC(C)C)C(=O)NCCCC(=O)NC(Cc1c[nH]cn1)C(=O)NC(C)C(=O)NC1C(=O)NC(C(C)O)C(=O)NC(Cc2c[nH]cn2)C(=O)NC(C)C(=O)NC(C(C)O)C(=O)OC1C (stereo not given) (X49-[Cya]L[GABA]HATTHAT; ester 6-C; configuration not given here)	> 25 µM (inactive)	> 25 µM (inactive)	> 25 µM (inactive)	> 25 µM (inactive)	> 25 µM (inactive)	> 25 µM (inactive)	> 25 µM (inactive)	> 25 µM (inactive)	> 25 µM (inactive)	> 25 µM (inactive)	> 25 µM (inactive)	> 25 µM (inactive)	> 25 µM (inactive)	> 25 µM (inactive)	> 25 µM (inactive)	> 25 µM (inactive)	> 25 µM (inactive)	17.5 µM (inactive)	> 25 µM (inactive)	> 25 µM (inactive)
CC1(C)OC(=O)C(Cc2ccccc2)(Cc2ccccc2)C(=O)O1	> 100 µM (inactive)	> 100 µM (inactive)	> 100 µM (inactive)	> 100 µM (inactive)	> 100 µM (inactive)	> 100 µM (inactive)	> 100 µM (inactive)	> 100 µM (inactive)	> 100 µM (inactive)	> 100 µM (inactive)	> 100 µM (inactive)	> 100 µM (inactive)	> 100 µM (inactive)	> 100 µM (inactive)	> 100 µM (inactive)	> 100 µM (inactive)	> 100 µM (inactive)	> 100 µM (inactive)	> 100 µM (inactive)	> 100 µM (inactive)
COc1cc(C2C3=C(COC3=O)OC(C)(C)Oc3cc4c(cc32)OCO4)cc(OC)c1O (stereo not given)	0.944 µM (active)	0.851 µM (active)	1.39 µM (inactive)	2.27 µM (inactive)	0.291 µM (active)	2.19 µM (inactive)	0.989 µM (active)	0.531 µM (active)	0.199 µM (active)	3.11 µM (inactive)	1.86 µM (inactive)	0.39 µM (active)	0.964 µM (active)	0.444 µM (active)	0.467 µM (active)	14.6 µM (inactive)	2.79 µM (inactive)	1.01 µM (active)	0.498 µM (active)	0.966 µM (active)
CN(c1ccccc1Cl)S(=O)(=O)c1ccccc1[N+](=O)[O-]	37.2 µM (inactive)	> 10 µM (inactive)	91.6 µM (inactive)	34.7 µM (inactive)	24 µM (inactive)	34.3 µM (inactive)	70.1 µM (inactive)	38.9 µM (inactive)	33.9 µM (inactive)	25.7 µM (inactive)	35.2 µM (inactive)	27.9 µM (inactive)	56.8 µM (inactive)	24.7 µM (inactive)	35.9 µM (inactive)	96.6 µM (inactive)	95.7 µM (inactive)	35.5 µM (inactive)	90.6 µM (inactive)	40.6 µM (inactive)
O=c1[nH]/c(=C/c2ccc(OCc3ccccc3)cn2)c(=O)[nH]/c1=C/c1ccc([N+](=O)[O-])cc1	> 100 µM (inactive)	> 94.6 µM (inactive)	> 100 µM (inactive)	> 100 µM (inactive)	> 100 µM (inactive)	> 100 µM (inactive)	> 100 µM (inactive)	> 100 µM (inactive)	> 100 µM (inactive)	> 63.1 µM (inactive)	> 100 µM (inactive)	> 100 µM (inactive)	> 100 µM (inactive)	> 100 µM (inactive)	> 61.4 µM (inactive)	> 100 µM (inactive)	> 100 µM (inactive)	> 58.3 µM (inactive)	> 100 µM (inactive)	> 65.3 µM (inactive)
O=c1c2ncn(CCCl)c2n(-c2ccccc2)c(=S)n1-c1ccccc1	> 100 µM (inactive)	> 100 µM (inactive)	> 100 µM (inactive)	> 100 µM (inactive)	> 100 µM (inactive)	> 100 µM (inactive)	> 100 µM (inactive)	> 100 µM (inactive)	> 100 µM (inactive)	> 100 µM (inactive)	> 100 µM (inactive)	> 100 µM (inactive)	> 100 µM (inactive)	> 100 µM (inactive)	> 100 µM (inactive)	> 100 µM (inactive)	> 100 µM (inactive)	> 100 µM (inactive)	> 100 µM (inactive)	> 100 µM (inactive)
CC1(C)CC(=O)C(Cc2ccccc2)(Cc2ccccc2)C(=O)C1	> 100 µM (inactive)	> 100 µM (inactive)	> 100 µM (inactive)	> 100 µM (inactive)	> 100 µM (inactive)	> 100 µM (inactive)	> 100 µM (inactive)	> 100 µM (inactive)	> 100 µM (inactive)	> 100 µM (inactive)	> 100 µM (inactive)	> 100 µM (inactive)	> 100 µM (inactive)	> 100 µM (inactive)	> 100 µM (inactive)	> 100 µM (inactive)	> 100 µM (inactive)	> 100 µM (inactive)	> 100 µM (inactive)	> 100 µM (inactive)
